Source: patent US9498463B2, “Compound obtained from gamboge resin, and medical uses of the same” (priority 2010, dated 2016)
In brackets after ≈: the same amount, converted by molar mass.

What was measured:
caspases = conditions: cited from earlier work
[1] = tested on: Human hepatocellular carcinoma cell HepG2; experiment: cells; conditions: for IC50: HepG2, read-out: IC50 (50% inhibition concentration); for CC50: HepG2, read-out: LC50 (50% lethal concentration)
Text: (§1) In Vitro Anti-Cancer Test
(§2) The in vitro anti-cancer test was primarily used to detect the effect of a candidate drug on cancer cell proliferation. The working principle involved therein is the ability of viable cells to shift alamarBlue (AbD Serotec, UK) from its originally non-fluorescent oxidized state (non-fluorescent, blue) to a reduced form (fluorescent, red) having fluorescence via metabolic reaction. According to the fluorescent data result generated by the alamarBlue reagent thus obtained, the proliferation of the viable cells and cell activity can be quantified for detection.
(§3) In the in vitro anti-cancer tests, a candidate drug was tested at 5 different concentrations of 0.01, 0.1, 1, 10, and 100 μg/ml, and six human cancer cell lines and a normal human cell line were used (see Table 5).

[2] = tested on: Human breast adenocarcinoma cell MCF7; experiment: cells; conditions: Homo sapiens; for IC50: MCF7, read-out: IC50 (50% inhibition concentration); for CC50: MCF7, read-out: LC50 (50% lethal concentration)
Text: as §1, §2, §3

[3] = tested on: Human promyelocytic leukemia cell HL-60; experiment: cells; conditions: for IC50: HL-60, read-out: IC50 (50% inhibition concentration); for CC50: HL-60, read-out: LC50 (50% lethal concentration)
Text: as §1, §2, §3

[4] = tested on: Human umbilical venal epithelial cell (HUVEC); experiment: cells; conditions: Homo sapiens, HUVEC, read-out: IC50 (50% inhibition concentration)
Text: as §1, §2, §3

[5] = tested on: Human lung carcinoma cell A549; experiment: cells; conditions: for IC50: A549, read-out: IC50 (50% inhibition concentration); for CC50: A549, read-out: LC50 (50% lethal concentration)
Text: as §1, §2, §3

[6] = tested on: Human colon adenocarcinoma cell HT-29; experiment: cells; conditions: for IC50: HT-29, read-out: IC50 (50% inhibition concentration); for CC50: HT-29, read-out: LC50 (50% lethal concentration)
Text: as §1, §2, §3

[7] = tested on: Human histocytic lymphoma cell U937; experiment: cells; conditions: for IC50: U-937, read-out: IC50 (50% inhibition concentration); for CC50: U-937, read-out: LC50 (50% lethal concentration)
Text: as §1, §2, §3

in vitro = experiment: in vitro
Text: as §1, §2, §3

| SMILES | activator of caspases and inducer of apoptosis (caspases) | IC50 [1] | CC50 [1] | IC50 [2] | CC50 [2] | IC50 [3] | CC50 [3] | IC50 [4] | IC50 [5] | CC50 [5] | IC50 [6] | CC50 [6] | IC50 [7] | CC50 [7] | CC50 (in vitro) |
| --- | --- | --- | --- | --- | --- | --- | --- | --- | --- | --- | --- | --- | --- | --- | --- |
| COC(=O)/C(C)=C\CC12OC(C)(C)C3CC(C=C4C(=O)c5c(O)c6c(c(CC=C(C)C)c5OC431)OC(C)(CCC(O)C(C)(C)O)C=C6)C2=O (centres unmarked) [methyl 37,38-dihydroxy-gambogate] | activator of caspases and an inducer of apoptosis |  |  |  |  |  |  |  |  |  |  |  |  |  |  |
| CC(C)=CCC/C(C)=C/Cc1c(O)c(CC=C(C)C)c2c(c1O)C(=O)C1=C[C@@H]3CC4C(C)(C)O[C@](C/C=C(\C)C(=O)O)(C3=O)[C@@]14O2 [Gh-2642, isogambogenic acid] |  | 11 µg/mL (≈ 17.4 µM) | 29 µg/mL (≈ 46 µM) | 3 µg/mL (≈ 4.76 µM) | 10 µg/mL (≈ 15.9 µM) | 9 µg/mL (≈ 14.3 µM) | 32 µg/mL (≈ 50.7 µM) | 2.4 µg/mL (≈ 3.8 µM) | 1.5 µg/mL (≈ 2.38 µM) | 4.6 µg/mL (≈ 7.29 µM) | 12 µg/mL (≈ 19 µM) | 42 µg/mL (≈ 66.6 µM) | 1.3 µg/mL (≈ 2.06 µM) | 4.1 µg/mL (≈ 6.5 µM) | 11 µg/mL (≈ 17.4 µM) |
| CC(C)=CCC[C@]1(C)C[C@H](O)c2c(O)c3c(c(CC=C(C)C)c2O1)O[C@]12C(=C[C@@H]4CC1C(C)(C)O[C@]2(C/C=C(/C)C(=O)O)C4=O)C3=O [Gh-2641-1, neogambogic acid] |  | 1.7 µg/mL (≈ 2.63 µM) | 4.6 µg/mL (≈ 7.11 µM) | 0.2 µg/mL (≈ 0.309 µM) | 3.5 µg/mL (≈ 5.41 µM) | 0.18 µg/mL (≈ 0.278 µM) | 4.5 µg/mL (≈ 6.96 µM) | 0.54 µg/mL (≈ 0.835 µM) | 0.15 µg/mL (≈ 0.232 µM) | 0.22 µg/mL (≈ 0.34 µM) | 2.6 µg/mL (≈ 4.02 µM) | 6.8 µg/mL (≈ 10.5 µM) | 0.26 µg/mL (≈ 0.402 µM) | 1 µg/mL (≈ 1.55 µM) | 4.3 µg/mL (≈ 6.65 µM) |
| CC(C)=CCC[C@@]1(C)C=Cc2c(O)c3c(c(CC=C(C)C)c2O1)O[C@]12C(=C[C@@H]4CC1C(C)(C)O[C@]2(C/C=C(\C)C(=O)O)C4=O)C3=O [Gh-1642, epiisogambogic acid] |  | 1.1 µg/mL (≈ 1.75 µM) | 5.3 µg/mL (≈ 8.43 µM) | 2.4 µg/mL (≈ 3.82 µM) | 29 µg/mL (≈ 46.1 µM) | 6 µg/mL (≈ 9.54 µM) | 35 µg/mL (≈ 55.7 µM) | 0.18 µg/mL (≈ 0.286 µM) | 0.51 µg/mL (≈ 0.811 µM) | 2.8 µg/mL (≈ 4.45 µM) | 1.9 µg/mL (≈ 3.02 µM) | 4.8 µg/mL (≈ 7.63 µM) | 8.8 µg/mL (≈ 14 µM) | 33 µg/mL (≈ 52.5 µM) | 1.3 µg/mL (≈ 2.07 µM) |
| C=C(C)C1CC[C@]2(C)C[C@H]1c1c(O)c3c(c(CC=C(C)C)c1O2)O[C@]12C(=C[C@@H]4CC1C(C)(C)O[C@]2(/C=C/C(C)C(=O)O)C4=O)C3=O (stereo partly drawn) [Gh-2508, 3-butenoic acid, 2-methyl-4-[(1R,3aS,5S,9R,10S,13R,16aS)-3a,4,5,7,10,11,12,13-octahydro-8-hydroxy-3,3,13-trimethyl-15-(3-methyl-2-butenyl)-10-(1-methylethenyl)-7,18-dioxo-1,5:9,13-dimethano-1H,3H,9H-furo[3.4-g]oxocino[3.2-b]xanthen-1-yl]-,(3E)-] |  | 1.9 µg/mL (≈ 3.02 µM) | 5.9 µg/mL (≈ 9.38 µM) | 0.087 µg/mL (≈ 0.138 µM) | 1.7 µg/mL (≈ 2.7 µM) | 0.28 µg/mL (≈ 0.445 µM) | 6.6 µg/mL (≈ 10.5 µM) | 0.52 µg/mL (≈ 0.827 µM) | 0.16 µg/mL (≈ 0.254 µM) | 0.46 µg/mL (≈ 0.732 µM) | 1.8 µg/mL (≈ 2.86 µM) | 5.5 µg/mL (≈ 8.75 µM) | 0.28 µg/mL (≈ 0.445 µM) | 2.2 µg/mL (≈ 3.5 µM) | 5.4 µg/mL (≈ 8.59 µM) |
| C=C(C)[C@@H]1CC[C@@]2(C)CC1c1c(O)c3c(c(CC=C(C)C)c1O2)O[C@]12C(=C[C@@H]4CC1C(C)(C)O[C@]2(/C=C/C(C)C(=O)O)C4=O)C3=O (stereo partly drawn) [Gh-2507, 3-butenoic acid, 2-methyl-4-[(1R,3aS,5S,9S,10R,13S,16aS)-3a,4,5,7,10,11,12,13-octahydro-8-hydroxy-3,3,13-trimethyl-15-(3-methyl-2-butenyl)-10-(1-methylethenyl)-7,18-dioxo-1,5:9,13-dimethano-1H,3H,9H-furo[3.4-g]oxocino[3.2-b]xanthen-1-yl],(3E)-] |  | 1.7 µg/mL (≈ 2.7 µM) | 7.1 µg/mL (≈ 11.3 µM) | 0.19 µg/mL (≈ 0.302 µM) | 2.2 µg/mL (≈ 3.5 µM) | 0.2 µg/mL (≈ 0.318 µM) | 5.3 µg/mL (≈ 8.43 µM) | 0.41 µg/mL (≈ 0.652 µM) | 0.13 µg/mL (≈ 0.207 µM) | 0.53 µg/mL (≈ 0.843 µM) | 1.6 µg/mL (≈ 2.54 µM) | 8.6 µg/mL (≈ 13.7 µM) | 0.45 µg/mL (≈ 0.716 µM) | 2.7 µg/mL (≈ 4.29 µM) | 21 µg/mL (≈ 33.4 µM) |
| CC(C)=CCC[C@@]1(C)C=Cc2c(O)c3c(c(CC=C(C)C)c2O1)O[C@]12C(=C[C@@H]4CC1C(C)(C)O[C@]2(C/C=C(/C)C(=O)O)C4=O)C3=O [Gh-2606, epigambogic acid] |  | 0.38 µg/mL (≈ 0.604 µM) | 3 µg/mL (≈ 4.77 µM) | 1.3 µg/mL (≈ 2.07 µM) | 1.6 µg/mL (≈ 2.54 µM) | 0.66 µg/mL (≈ 1.05 µM) | 2.4 µg/mL (≈ 3.82 µM) | 0.11 µg/mL (≈ 0.175 µM) | 0.1 µg/mL (≈ 0.159 µM) | 0.31 µg/mL (≈ 0.493 µM) | 0.39 µg/mL (≈ 0.62 µM) | 2 µg/mL (≈ 3.18 µM) | 0.41 µg/mL (≈ 0.652 µM) | 3.1 µg/mL (≈ 4.93 µM) | 1.4 µg/mL (≈ 2.23 µM) |
| CC(C)=CCc1c2c(c(O)c3c1O[C@@]1(C)CCC4C3C1C4(C)C)C(=O)C1=C[C@@H]3CC4C(C)(C)O[C@](C/C=C(/C)C(=O)O)(C3=O)[C@@]14O2 [Gh-2607-1A] |  | 0.43 µg/mL (≈ 0.684 µM) | 3.9 µg/mL (≈ 6.2 µM) | 0.12 µg/mL (≈ 0.191 µM) | 1.5 µg/mL (≈ 2.39 µM) | 0.49 µg/mL (≈ 0.779 µM) | 2.6 µg/mL (≈ 4.14 µM) | 0.43 µg/mL (≈ 0.684 µM) | 0.19 µg/mL (≈ 0.302 µM) | 0.45 µg/mL (≈ 0.716 µM) | 0.24 µg/mL (≈ 0.382 µM) | 0.84 µg/mL (≈ 1.34 µM) | 0.15 µg/mL (≈ 0.239 µM) | 0.37 µg/mL (≈ 0.588 µM) | 1.5 µg/mL (≈ 2.39 µM) |
| CC(C)=CCC[C@]1(C)C=Cc2c(O)c3c(c(CC=C(C)C)c2O1)O[C@]12C(=CC4CC1C(C)(C)O[C@]2(C/C=C(/C)C(=O)O)C4=O)C3=O [Gh-2605, gambogic acid] |  | 0.23 µg/mL (≈ 0.366 µM) | 3.5 µg/mL (≈ 5.57 µM) | 4.4 µg/mL (≈ 7 µM) | 5.9 µg/mL (≈ 9.38 µM) | 0.17 µg/mL (≈ 0.27 µM) | 2.9 µg/mL (≈ 4.61 µM) | 0.098 µg/mL (≈ 0.156 µM) | 0.12 µg/mL (≈ 0.191 µM) | 0.37 µg/mL (≈ 0.588 µM) | 0.18 µg/mL (≈ 0.286 µM) | 0.61 µg/mL (≈ 0.97 µM) | 0.76 µg/mL (≈ 1.21 µM) | 2.9 µg/mL (≈ 4.61 µM) | 1.6 µg/mL (≈ 2.54 µM) |
